Results reported in patent US11787809B2 (NIHON NOHYAKU CO., LTD., priority 2015, dated 2023).
Where two headings read alike, the source gives them in different places.

Legend:
Laodelphax striatella = experiment: Insecticidal test on Laodelphax striatella (rice seedling dip); format: in vivo; conditions: Laodelphax striatellus, 192 h, read-out: insecticidal effect (corrected mortality rate)
Text: Insecticidal Test on Laodelphax striatella
The oxime group-containing condensed heterocyclic compounds represented by the general formula (1) of the present invention or salts thereof were separately dispersed in water and diluted to 500 ppm, and rice plant seedlings (variety: Nihonbare) were dipped in the agrochemical dispersions for 30 seconds. After air-dried, each seedling was put into a separate glass test tube and inoculated with ten 3rd-instar larvae of Laodelphax striatella, and then the glass test tubes were capped with cotton plugs. At 8 days after the inoculation, the numbers of surviving larvae and dead larvae were counted, the corrected mortality rate was calculated according to the formula shown below, and the insecticidal effect was evaluated according to the criteria of Test Example 1. Corrected mortality rate (%)=100×(Survival rate in a non-treatment plot−Survival rate in a treatment plot)/Survival rate in a non-treatment plot [Math. 2]

Plutella xylostella = experiment: Insecticidal test on Plutella xylostella (dip of Chinese cabbage seedlings with laid eggs); format: in vivo; conditions: 144 h
Text: Insecticidal Test on Plutella xylostella
Adults of Plutella xylostella were released onto Chinese cabbage seedlings and allowed to lay eggs thereon. At 2 days after the release of the adults, the Chinese cabbage seedlings with laid eggs were dipped for about 30 seconds in agrochemical dispersions diluted to 500 ppm, each of which contained a different kind of oxime group-containing condensed heterocyclic compound represented by the general formula (1) of the present invention as an active ingredient. After air-dried, the seedlings were kept in a thermostatic chamber at 25° C. At 6 days after the dip treatment, the number of hatched larvae per plot was counted, the mortality rate was calculated according to the formula shown below, and the insecticidal effect was evaluated according to the criteria of Test Example 1. This test was conducted in triplicate using 10 adults of Plutella xylostella per plot. Corrected mortality rate (%)=100×(Number of hatched larvae in a non-treatment plot−Number of hatched larvae in a treatment plot)/Number of hatched larvae in a non-treatment plot [Math. 3]

[1] = 500 ppm, rice seedlings (Nihonbare) dipped 30 seconds, ten 3rd-instar larvae, 8 days after inoculation, criteria of Test Example 1
[2] = 500 ppm, Chinese cabbage seedlings with laid eggs dipped about 30 seconds, 25° C., 6 days after dip treatment, criteria of Test Example 1, read-out: insecticidal effect (corrected mortality rate, hatched larvae)

Compound	mortality at 500 ppm (Laodelphax striatella; [1]) [%]	mortality at 500 ppm (Plutella xylostella; [2]) [%]	mortality at 500 ppm (Laodelphax striatella; in Oryza sativa) [%]	mortality at 500 ppm (Plutella xylostella; in Brassica rapa, read-out: insecticidal effect (corrected mortality rate, hatched larvae)) [%]
CCS(=O)(=O)c1cc(/C=N/OCC(F)(F)F)cnc1-c1nc2cc(SC(F)(F)F)ccc2o1 [Compound 4-12]	100	100	–	–
CCS(=O)(=O)c1ccc(C=NOCC(F)(F)F)nc1-c1nc2cc(C(F)(F)F)nnc2n1C [Compound 3-2]	100	100	–	–
CCS(=O)(=O)c1cc(/C=N/O)cnc1-c1nc2cc(SC(F)(F)F)ccc2o1 [Compound 4-11]	100	100	–	–
CCS(=O)(=O)c1cc(C=NOCC(F)(F)F)cnc1-c1nc2cc(C(F)(F)F)cnc2n1C [Compound 2-33]	100	100	–	–
CCS(=O)(=O)c1cc(C=NO)cnc1-c1nc2cc(C(F)(F)F)cnc2n1C [Compound 2-3]	100	100	–	–
CCS(=O)(=O)c1ccc(C=NO)nc1-c1nc2cc(C(F)(F)F)nnc2n1C [Compound 3-1]	–	–	100	100
